The record followed here is patent publication US20250221966A1, “RXFP1 AGONISTS” (BRISTOL-MYERS SQUIBB COMPANY, priority 2021, published 2025).

The assay concerns the target T1, human RXFP1 (Homo sapiens, UniProt Q9HBX9).
T1 construct: expressed in transfected cells
T1 sequence (Q9HBX9 1-757): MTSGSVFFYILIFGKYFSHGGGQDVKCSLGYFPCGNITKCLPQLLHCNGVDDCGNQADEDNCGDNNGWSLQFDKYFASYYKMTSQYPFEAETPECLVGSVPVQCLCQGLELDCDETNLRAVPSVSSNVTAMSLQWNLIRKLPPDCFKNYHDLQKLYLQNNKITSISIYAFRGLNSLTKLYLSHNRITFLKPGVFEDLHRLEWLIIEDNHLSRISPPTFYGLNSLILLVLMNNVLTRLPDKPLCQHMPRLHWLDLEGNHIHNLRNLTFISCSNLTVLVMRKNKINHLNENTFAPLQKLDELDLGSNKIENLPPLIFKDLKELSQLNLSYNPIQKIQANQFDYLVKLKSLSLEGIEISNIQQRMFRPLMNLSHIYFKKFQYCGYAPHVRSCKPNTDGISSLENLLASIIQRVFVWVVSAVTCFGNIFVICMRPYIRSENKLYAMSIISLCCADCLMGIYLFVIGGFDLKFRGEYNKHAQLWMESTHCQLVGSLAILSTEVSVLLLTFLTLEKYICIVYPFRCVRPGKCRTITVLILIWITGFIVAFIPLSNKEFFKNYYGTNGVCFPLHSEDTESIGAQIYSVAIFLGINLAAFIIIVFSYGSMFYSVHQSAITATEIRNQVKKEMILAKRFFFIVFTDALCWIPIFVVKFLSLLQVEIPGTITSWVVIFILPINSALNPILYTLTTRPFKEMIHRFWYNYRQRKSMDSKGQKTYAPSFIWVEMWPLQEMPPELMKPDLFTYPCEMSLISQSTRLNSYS
As to the kind of experiment: RXFP1 cAMP assay (hRXFP1 HEK293 cAMP assay, HTRF). It counts as cell-based. The conditions noted are these: HEK293 cells stably expressing human RXFP1, 30 min at room temperature, read-out: cAMP hRXFP1 HEK293 Assay EC50. On the procedure: RXFP1 Cyclic Adenosine Monophosphate (cAMP) Assays. […] Cells were dissociated and suspended in assay buffer. The assay buffer was HBSS buffer (with calcium and magnesium) containing 20 mM HEPES, 0.05% BSA, and 0.5 mM IBMX. Cells (3000 cells per well, except 1500 cell per well for HEK293 cells stably expressing human RXFP1) were added to 384-well Proxiplates (Perkin-Elmer). Cells were immediately treated with test compounds in DMSO (2% final) at final concentrations in the range of 0.010 nM to 50 μM. Cells were incubated for 30 min at room temperature. The level of intracellular cAMP was determined using the HTRF HiRange cAMP assay reagent kit (Cisbio) according to manufacturer's instructions. Solutions of cryptate conjugated anti-cAMP and d2 fluorophore-labelled cAMP were made in a supplied lysis buffer separately. Upon completion of the reaction, the cells were lysed with equal volume of the d2-cAMP solution and anti-cAMP solution. […] The potency and activity of a compound to […] cAMP production was then determined by fitting to a 4-parametric logistic equation from a plot of cAMP level versus compound concentrations.
Consider `COc1ccc(C2=NOC(CO)C2)cc1C(=O)N[C@H]1[C@@H](C(=O)Nc2ccc(F)c(C(F)(F)F)c2)[C@H]2CC[C@@H]1/C2=C\C1CCC1` (mixture of isomers) [Example 378, (1R,2S,3R,4R,Z)-7-(cyclobutylmethylene)-N-(4-fluoro-3-(trifluoromethyl)phenyl)-3-(5-(5-(hydroxymethyl)-4,5-dihydroisoxazol-3-yl)-2-methoxybenzamido)bicyclo[2.2.1]heptane-2-carboxamide], for which the EC50 turned out to be 16 nM.

On to `COc1ccc(C2=NOC(C(=O)O)C2)cc1C(=O)N[C@H]1[C@@H](C(=O)Nc2ccc(F)c(C(F)(F)F)c2)[C@H]2CC[C@@H]1/C2=C\C1CC1` (mixture of isomers) [Example 384, 3-(3-(((1R,2R,3S,4R,Z)-7-(cyclopropylmethylene)-3-((4-fluoro-3-(trifluoromethyl)phenyl)carbamoyl)bicyclo[2.2.1]heptan-2-yl)carbamoyl)-4-methoxyphenyl)-4,5-dihydroisoxazole-5-carboxylic acid], for which the EC50 is 123 nM.

Turning to `COc1ccc(C2=NOC3CC(O)CC23)cc1C(=O)N[C@H]1[C@@H](C(=O)Nc2ccc(F)c(C(F)(F)F)c2)[C@H]2CC[C@@H]1/C2=C\C1CCC1` (mixture of isomers) [Example 406, (1R,2S,3R,4R,Z)-7-(cyclobutylmethylene)-N-(4-fluoro-3-(trifluoromethyl)phenyl)-3-(5-(5-hydroxy-3a,5,6,6a-tetrahydro-4H-cyclopenta[d]isoxazol-3-yl)-2-methoxybenzamido)bicyclo[2.2.1]heptane-2-carboxamide], the EC50 was determined as 48 nM.

As for `COc1ccc(C2=NOC3CN(C(=O)OC(C)(C)C)CC23)cc1C(=O)N[C@H]1[C@@H](C(=O)Nc2ccc(F)c(C(F)(F)F)c2)[C@H]2CC[C@@H]1/C2=C\C1CC1` (mixture of isomers) [Example 434, tert-butyl 3-(3-(((1R,2R,3S,4R,Z)-7-(cyclopropylmethylene)-3-((4-fluoro-3-(trifluoromethyl)phenyl)carbamoyl)bicyclo[2.2.1]heptan-2-yl)carbamoyl)-4-methoxyphenyl)-3a,4,6,6a-tetrahydro-5H-pyrrolo[3,4-d]isoxazole-5-carboxylate], the EC50 was 24 nM.

As for `COc1ccc(C2=NOC3CS(=O)(=O)CC23)cc1C(=O)N[C@@H]1C2CCC(/C2=C/C2CC2)[C@@H]1C(=O)Nc1ccc(F)c(C(F)(F)F)c1` (mixture of isomers) [Example 442, (1R,2S,3R,4R,Z)-7-(cyclopropylmethylene)-3-(5-(5,5-dioxido-3a,4,6,6a-tetrahydrothieno[3,4-d]isoxazol-3-yl)-2-methoxybenzamido)-N-(4-fluoro-3-(trifluoromethyl)phenyl)bicyclo[2.2.1]heptane-2-carboxamide], the EC50 turned out to be 25 nM.

Regarding `COc1ccc(-c2cc(C(OC(=O)NC34CC(C3)C4)C(F)(F)F)ccc2F)cc1C(=O)N[C@H]1[C@@H](C(=O)Nc2ccc(F)c(C(F)(F)F)c2)[C@H]2CC[C@@H]1/C2=C\C1CC1` (single isomer, unassigned) [Example 206], the EC50 was 1 nM.

As for `COc1ccc(-c2cc(C(OC(=O)NC3CCC3)C(F)F)ccc2F)cc1C(=O)N[C@H]1[C@@H](C(=O)Nc2ccc(F)c(C(F)(F)F)c2)[C@H]2CC[C@@H]1/C2=C\C1CC1` (single isomer, unassigned) [Example 230], the EC50 turned out to be 1 nM.

On to `COc1ccc(C2=NOC(CO)C2)cc1C(=O)N[C@@H]1C2CCC(/C2=C/C2CCC2)[C@@H]1C(=O)Nc1ccc(F)c(C(F)(F)F)c1` (single isomer, unassigned) [Example 379], for which the EC50 turned out to be 26 nM.

With `COc1ccc(C2=NOC(C(=O)O)C2)cc1C(=O)N[C@@H]1C2CCC(/C2=C/C2CC2)[C@@H]1C(=O)Nc1ccc(F)c(C(F)(F)F)c1` (single isomer, unassigned) [Example 385], the EC50 is 8 nM.

On to `COc1ccc(C2=NOC(CC(=O)O)C2)cc1C(=O)N[C@@H]1C2CCC(/C2=C/C2CC2)[C@@H]1C(=O)Nc1ccc(F)c(C(F)(F)F)c1` (single isomer, unassigned) [Example 390], for which the EC50 was found to be 37 nM.

Turning to `COc1ccc(C2CC(O)C(=O)N2C)cc1C(=O)N[C@@H]1C2CCC(/C2=C/C2CC2)[C@@H]1C(=O)Nc1ccc(F)c(C(F)(F)F)c1` (single isomer, unassigned) [Example 414], the EC50 was 364 nM.

`COc1ccc(C2=NOC3COCC23)cc1C(=O)N[C@@H]1C2CCC(/C2=C/C2CCC2)[C@@H]1C(=O)Nc1ccc(F)c(C(F)(F)F)c1` (single isomer, unassigned) [Example 416]: the EC50 was determined as 1 nM.

Take `COc1ccc(C2=NOC3CC(CO)CC23)cc1C(=O)N[C@@H]1C2CCC(/C2=C/C2CC2)[C@@H]1C(=O)Nc1ccc(F)c(C(F)(F)F)c1` (single isomer, unassigned) [Example 430]: the EC50 came to 194 nM.

Consider `COc1ccc(C2=NOC3CCCC23)cc1C(=O)N[C@H]1[C@@H](C(=O)Nc2ccc(F)c(C(F)(F)F)c2)[C@H]2CC[C@@H]1/C2=C\C1CC1` (single isomer, unassigned) [Example 441], for which the EC50 was determined as 360 nM.

On to `COc1ccc(C2=NOC3C4CC(C(O)C4O)C23)cc1C(=O)N[C@H]1[C@@H](C(=O)Nc2ccc(F)c(C(F)(F)F)c2)[C@H]2CC[C@@H]1/C2=C\C1CC1` (single isomer, unassigned) [Example 448], for which the EC50 was 1.2 nM.

Regarding `COc1ccc(C2CCN(C(=O)C(C)(C)O)C2)cc1C(=O)N[C@H]1[C@@H](C(=O)Nc2ccc(F)c(C(F)(F)F)c2)[C@H]2CC[C@@H]1/C2=C\C1CC1` (single isomer, unassigned) [Example 449], the EC50 came out at 1.6 nM.

For `COCCOc1ccc(C2=NOC3COCC23)cc1C(=O)N[C@H]1[C@@H](C(=O)Nc2ccc(F)c(C(F)(F)F)c2)[C@H]2CC[C@@H]1/C2=C\C1CC1` (single isomer, unassigned) [Example 452], the concentration for a half-maximal effect (EC50) is 1.8 nM.

Regarding `COc1ccc(C2=NOC3(CO)CCC23CO)cc1C(=O)N[C@H]1[C@@H](C(=O)Nc2ccc(F)c(C(F)(F)F)c2)[C@H]2CC[C@@H]1/C2=C\C1CC1` (single isomer, unassigned) [Example 461], the EC50 came out at 2.6 nM.

In the case of `COc1ccc(C2=NOC3CC(C(O)C(F)(F)F)CC23)cc1C(=O)N[C@H]1[C@@H](C(=O)Nc2ccc(F)c(C(F)(F)F)c2)[C@H]2CC[C@@H]1/C2=C\C1CC1` (single isomer, unassigned) [Example 489], the EC50 amounted to 8.5 nM.

As to `COc1ccc(C2=NOC3CC(C(O)C(F)(F)F)CC23)cc1C(=O)N[C@H]1[C@@H](C(=O)Nc2ccc(F)c(C(F)(F)F)c2)[C@H]2CC[C@@H]1/C2=C\C1CC1` (single isomer, unassigned) [Example 530], the EC50 is 22.7 nM.

With `COc1ccc(C2=NOC3COCC23)cc1C(=O)N[C@H]1[C@@H](C(=O)NC2CCC(C(F)(F)F)C2)[C@H]2CC[C@@H]1/C2=C\C1CC1` (single isomer, unassigned) [Example 589], the EC50 is 83.5 nM.

For the molecule `COc1cc(C2CC2)c(C2=NOC3COCC23)cc1C(=O)N[C@H]1C(C(=O)Nc2ccc(F)c(C(F)(F)F)c2)[C@H]2CC[C@@H]1/C2=C\C1CC1` (single isomer, unassigned) [Example 626], the EC50 was found to be 171 nM.

As for `COc1ccc(C2=NOC3COCC23)cc1C(=O)N[C@H]1[C@@H](C(=O)NC2CCC(C(F)(F)F)C2)[C@H]2CC[C@@H]1/C2=C\C1CC1` (single isomer, unassigned) [Example 629], the EC50 was found to be 180 nM.

Take `COc1ccc(-c2cc(C(OC(=O)Nc3ccccc3)C(F)(F)F)ccc2F)cc1C(=O)N[C@@H]1C2CCC(/C2=C/C2CC2)[C@@H]1C(=O)Nc1ccc(F)c(C(F)(F)F)c1` (single isomer, unassigned) [compound 224]: the EC50 came out at 2 nM.

For the molecule `COc1ccc(-c2cc(C(OC(=O)Nc3ccccc3)C(F)(F)F)ccc2F)cc1C(=O)N[C@@H]1C2CCC(/C2=C/C2CC2)[C@@H]1C(=O)Nc1ccc(F)c(C(F)(F)F)c1` (single isomer, unassigned) [compound 229], the EC50 was determined as 7 nM.

With `COc1ccc(N2CCC(NC(=O)C3CCOCC3)C2)cc1C(=O)N[C@@H]1C2CCC(/C2=C/C(F)(F)F)[C@@H]1C(=O)Nc1ccc(F)c(C(F)(F)F)c1` (single isomer, unassigned) [compound 336], the EC50 amounted to 1930 nM.
